Laboratory results: US4401604A, “Process for preparing thiosulfenamide derivatives of N-phosphonomethylglycine triesters” (Monsanto Company, priority 1981, dated 1983)

Tests used:
Test in all cases: Post-emergence herbicidal activity, greenhouse
Format in all cases: in vivo
Yellow Nutsedge = details: Table I, 4 WAT
In short: (§1)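 Sow seeds/propagules in soil pans, grow in greenhouse with subirrigation to 2–3 weeks, spray foliage with compound formulated with cyclohexanone emulsifier mixture (~0.4%), return to greenhouse, then rate injury against controls about two and four weeks later.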

Sorghum = details: Table II
In short: as §1

Sugar Beet = details: Table II
In short: as §1

Rice = details: Table II
In short: as §1

Wheat = details: Table II
In short: as §1

Soybean = details: Table II
In short: as §1

Downy Brome = test system: Downy Brome
In short: as §1

Barnyardgrass = test system: Barnyardgrass
In short: as §1

Wild Buckwheat = details: Table II
In short: as §1

COC(=O)CN(CP(=O)(Oc1ccccc1)Oc1ccccc1)SSC(C)C [I, Glycine, N-[(diphenoxyphosphinyl)methyl]-N-[(1-methylethyl)dithio]-, methyl ester]
post-emergence herbicidal activity index (Yellow Nutsedge; 5.6 kg/h): 3 (75-99% control) | post-emergence herbicidal activity index (Yellow Nutsedge; 11.2 kg/h): 3 (75-99% control) | post-emergence herbicidal activity index (Sorghum; 0.056 kg/h, 2 WAT): 0 (0- 24% control) | post-emergence herbicidal activity index (Sorghum; 0.28 kg/h, 2 WAT): 0 (0- 24% control) | post-emergence herbicidal activity index (Sorghum; 1.12 kg/h, 4 WAT): 1 (25-49% control) | post-emergence herbicidal activity index (Sorghum; 5.6 kg/h, 4 WAT): 3 (75-99% control) | post-emergence herbicidal activity index (Sorghum; 11.2 kg/h, 4 WAT): 2 (50-74% control) | post-emergence herbicidal activity index (Sugar Beet; 0.056 kg/h, 2 WAT): 0 (0- 24% control) | post-emergence herbicidal activity index (Sugar Beet; 0.28 kg/h, 2 WAT): 0 (0- 24% control) | post-emergence herbicidal activity index (Sugar Beet; 1.12 kg/h, 4 WAT): 2 (50-74% control) | post-emergence herbicidal activity index (Sugar Beet; 5.6 kg/h, 4 WAT): 4 (100% control) | post-emergence herbicidal activity index (Sugar Beet; 11.2 kg/h, 4 WAT): 3 (75-99% control) | post-emergence herbicidal activity index (Rice; 0.056 kg/h, 2 WAT): 0 (0- 24% control) | post-emergence herbicidal activity index (Rice; 0.28 kg/h, 2 WAT): 0 (0- 24% control) | post-emergence herbicidal activity index (Rice; 1.12 kg/h, 4 WAT): 0 (0- 24% control) | post-emergence herbicidal activity index (Rice; 5.6 kg/h, 4 WAT): 3 (75-99% control) | post-emergence herbicidal activity index (Rice; 11.2 kg/h, 4 WAT): 3 (75-99% control) | post-emergence herbicidal activity index (Wheat; 0.056 kg/h, 2 WAT): 0 (0- 24% control) | post-emergence herbicidal activity index (Wheat; 0.28 kg/h, 2 WAT): 0 (0- 24% control) | post-emergence herbicidal activity index (Wheat; 1.12 kg/h, 4 WAT): 1 (25-49% control) | post-emergence herbicidal activity index (Wheat; 5.6 kg/h, 4 WAT): 3 (75-99% control) | post-emergence herbicidal activity index (Wheat; 11.2 kg/h, 4 WAT): 0 (0- 24% control) | post-emergence herbicidal activity index (Soybean; 0.056 kg/h, 2 WAT): 0 (0- 24% control) | post-emergence herbicidal activity index (Soybean; 0.28 kg/h, 2 WAT): 0 (0- 24% control) | post-emergence herbicidal activity index (Soybean; 1.12 kg/h, 4 WAT): 1 (25-49% control) | post-emergence herbicidal activity index (Soybean; 5.6 kg/h, 4 WAT): 3 (75-99% control) | post-emergence herbicidal activity index (Soybean; 11.2 kg/h, 4 WAT): 0 (0- 24% control) | post-emergence herbicidal activity index (Downy Brome; Table I, 5.6 kg/h, 4 WAT): 3 (75-99% control) | post-emergence herbicidal activity index (Downy Brome; Table I, 11.2 kg/h, 4 WAT): 3 (75-99% control) | post-emergence herbicidal activity index (Downy Brome; Table II, 0.056 kg/h, 2 WAT): 0 (0- 24% control) | post-emergence herbicidal activity index (Downy Brome; Table II, 0.28 kg/h, 2 WAT): 0 (0- 24% control) | post-emergence herbicidal activity index (Downy Brome; Table II, 1.12 kg/h, 4 WAT): 1 (25-49% control) | post-emergence herbicidal activity index (Downy Brome; Table II, 5.6 kg/h, 4 WAT): 2 (50-74% control) | post-emergence herbicidal activity index (Downy Brome; Table II, 11.2 kg/h, 4 WAT): 2 (50-74% control) | post-emergence herbicidal activity index (Barnyardgrass; Table I, 5.6 kg/h, 4 WAT): 4 (100% control) | post-emergence herbicidal activity index (Barnyardgrass; Table I, 11.2 kg/h, 4 WAT): 4 (100% control) | post-emergence herbicidal activity index (Barnyardgrass; Table II, 0.056 kg/h, 2 WAT): 0 (0- 24% control) | post-emergence herbicidal activity index (Barnyardgrass; Table II, 0.28 kg/h, 2 WAT): 1 (25-49% control) | post-emergence herbicidal activity index (Barnyardgrass; Table II, 1.12 kg/h, 4 WAT): 2 (50-74% control) | post-emergence herbicidal activity index (Barnyardgrass; Table II, 5.6 kg/h, 4 WAT): 4 (100% control) | post-emergence herbicidal activity index (Barnyardgrass; Table II, 11.2 kg/h, 4 WAT): 3 (75-99% control) | post-emergence herbicidal activity index (Wild Buckwheat; 0.056 kg/h, 2 WAT): 0 (0- 24% control) | post-emergence herbicidal activity index (Wild Buckwheat; 0.28 kg/h, 2 WAT): 0 (0- 24% control) | post-emergence herbicidal activity index (Wild Buckwheat; 1.12 kg/h, 4 WAT): 2 (50-74% control) | post-emergence herbicidal activity index (Wild Buckwheat; 5.6 kg/h, 4 WAT): 3 (75-99% control) | post-emergence herbicidal activity index (Wild Buckwheat; 11.2 kg/h, 4 WAT): 0 (0- 24% control)
